Source: US8835462B2, “Macrocyclic picolinamides as fungicides” (Dow AgroSciences LLC, priority 2012, dated 2014)
Where two headings read alike, the source gives them in different places.

Key:
Type in all cases: in vivo
[1] = tested on: Venturia inaequalis; assay: Apple scab (VENTIN) fungicidal activity; conditions: 24 h, 1 Day Protectant, read-out: Disease Control VENTIN 1DP
Description: Technical grades of materials were dissolved in acetone, which were then mixed with nine volumes of water containing 110 ppm Triton X-100. The fungicide solutions were applied onto wheat seedlings using an automated booth sprayer to run-off. All sprayed plants were allowed to air dry prior to further handling. Wheat plants (variety Yuma) were grown from seed in a greenhouse in 50% mineral soil/50% soil-less Metro mix until the first leaf was fully emerged, with 7-10 seedlings per pot. These plants were inoculated with an aqueous spore suspension of Septoria tritici either prior to or after fungicide treatments. After inoculation the plants were kept in 100% relative humidity (one day in a dark dew chamber followed by two to three days in a lighted dew chamber at 20° C.) to permit spores to germinate and infect the leaf. The plants were then transferred to a greenhouse set at 20° C. for disease to develop. When disease symptoms were fully expressed on the 1st leaves of untreated plants, infection levels were assessed on a scale of 0 to 100 percent disease severity. Percent disease control was calculated using the ratio of disease severity on treated plants relative to untreated plants. Evaluation of Fungicidal Activity: Apple Scab (Venturia Inaequalis; Bayer Code […]) Apple seedlings (variety McIntosh) were grown in soil-less Metro mix, with one plant per pot. Seedlings with two expanding young leaves at the top (older leaves at bottom of the plants were trimmed) were used in the test. Plants were inoculated with a spore suspension of Venturia inaequalis 24 hr after fungicide treatment and kept in a 22° C. dew chamber with 100% RH for 48 hr, and then moved to a greenhouse set at 20° C. for disease to develop. Fungicide formulation, application and disease assessment on the sprayed leaves followed the procedures as described in the Example A.

[2] = tested on: Magnaporthe grisea; Anamorph: Pyricularia oryzae; assay: whole plant or invertebrate; conditions: 24 h, read-out: Disease Control PYRIOR 1DP
[3] = tested on: Puccinia triticina; assay: Wheat brown rust (PUCCRT) fungicidal activity on wheat seedlings
Description: Technical grades of materials were dissolved in acetone, which were then mixed with nine volumes of water containing 110 ppm Triton X-100. The fungicide solutions were applied onto wheat seedlings using an automated booth sprayer to run-off. All sprayed plants were allowed to air dry prior to further handling. Wheat plants (variety Yuma) were grown from seed in a greenhouse in 50% mineral soil/50% soil-less Metro mix until the first leaf was fully emerged, with 7-10 seedlings per pot. These plants were inoculated with an aqueous spore suspension of Septoria tritici either prior to or after fungicide treatments. After inoculation the plants were kept in 100% relative humidity (one day in a dark dew chamber followed by two to three days in a lighted dew chamber at 20° C.) to permit spores to germinate and infect the leaf. The plants were then transferred to a greenhouse set at 20° C. for disease to develop. When disease symptoms were fully expressed on the 1st leaves of untreated plants, infection levels were assessed on a scale of 0 to 100 percent disease severity. Percent disease control was calculated using the ratio of disease severity on treated plants relative to untreated plants. Evaluation of Fungicidal Activity: Wheat Brown Rust (Puccinia triticina; Synonym: Puccinia recondita f. sp. tritici; Bayer Code PUCCRT) Wheat plants (variety Yuma) were grown from seed in a greenhouse in 50% mineral soil/50% soil-less Metro mix until the first leaf was fully emerged, with 7-10 seedlings per pot. These plants were inoculated with an aqueous spore suspension of Puccinia triticina either prior to or after fungicide treatments. After inoculation the plants were kept in a dark dew room at 22° C. with 100% relative humidity overnight to permit spores to germinate and infect the leaf. The plants were then transferred to a greenhouse set at 24° C. for disease to develop. Fungicide formulation, application and disease assessment followed the procedures as described in the Example A.

[4] = tested on: Blumeria graminis f. sp. hordei; assay: Barley powdery mildew (ERYSGH) fungicidal activity; conditions: 24 h, 1 Day Protectant, read-out: Disease Control ERYSGH 1DP
Description: Technical grades of materials were dissolved in acetone, which were then mixed with nine volumes of water containing 110 ppm Triton X-100. The fungicide solutions were applied onto wheat seedlings using an automated booth sprayer to run-off. All sprayed plants were allowed to air dry prior to further handling. Wheat plants (variety Yuma) were grown from seed in a greenhouse in 50% mineral soil/50% soil-less Metro mix until the first leaf was fully emerged, with 7-10 seedlings per pot. These plants were inoculated with an aqueous spore suspension of Septoria tritici either prior to or after fungicide treatments. After inoculation the plants were kept in 100% relative humidity (one day in a dark dew chamber followed by two to three days in a lighted dew chamber at 20° C.) to permit spores to germinate and infect the leaf. The plants were then transferred to a greenhouse set at 20° C. for disease to develop. When disease symptoms were fully expressed on the 1st leaves of untreated plants, infection levels were assessed on a scale of 0 to 100 percent disease severity. Percent disease control was calculated using the ratio of disease severity on treated plants relative to untreated plants. Evaluation of Fungicidal Activity: Barley Powdery Mildew (Blumeria Graminis f. sp. Hordei; Synonym: Erysiphe Graminis f. sp. Hordei; Bayer Code […]) Barley seedlings (variety Harrington) were propagated in soil-less Metro mix, with each pot having 8 to 12 plants, and used in the test when first leaf was fully emerged. Test plants were inoculated by dusting with infected stock plants 24 hr after fungicide treatments. After inoculation the plants were kept in a greenhouse set at 20° C. for disease to develop. Fungicide formulation, application and disease assessment on the sprayed leaves followed the procedures as described in the Example A.

[5] = tested on: Erysiphe cichoracearum; assay: Powdery mildew of cucumber (ERYSCI) fungicidal activity; conditions: Golovinomyces cichoracearum, 24 h, 1 Day Protectant, read-out: Disease Control ERYSCI 1DP
Description: Technical grades of materials were dissolved in acetone, which were then mixed with nine volumes of water containing 110 ppm Triton X-100. The fungicide solutions were applied onto wheat seedlings using an automated booth sprayer to run-off. All sprayed plants were allowed to air dry prior to further handling. Wheat plants (variety Yuma) were grown from seed in a greenhouse in 50% mineral soil/50% soil-less Metro mix until the first leaf was fully emerged, with 7-10 seedlings per pot. These plants were inoculated with an aqueous spore suspension of Septoria tritici either prior to or after fungicide treatments. After inoculation the plants were kept in 100% relative humidity (one day in a dark dew chamber followed by two to three days in a lighted dew chamber at 20° C.) to permit spores to germinate and infect the leaf. The plants were then transferred to a greenhouse set at 20° C. for disease to develop. When disease symptoms were fully expressed on the 1st leaves of untreated plants, infection levels were assessed on a scale of 0 to 100 percent disease severity. Percent disease control was calculated using the ratio of disease severity on treated plants relative to untreated plants. Evaluation of Fungicidal Activity: Powdery Mildew of Cucumber (Erysiphe cichoracearum; Bayer Code […]) Cucumber seedlings (variety Bush Pickle) were grown in soil-less Metro mix, with one plant per pot, and used in the test when 12 to 14 days old. Plants were inoculated with a spore suspension 24 hr following fungicide treatments. After inoculation the plants remained in the greenhouse set at 20° C. until disease was fully expressed. Fungicide formulation, application and disease assessment on the sprayed leaves followed the procedures as described in the Example A.

[6] = 24 h, 1 Day Protectant, read-out: Disease Control PUCCRT 1 DP
[7] = 72 h, 3 Day Curative, read-out: Disease Control PUCCRT 3 DC

Measured: pest or weed control at 100 ppm

COc1ccnc(C(=O)N[C@H]2COC[C@H](Cc3ccccc3)[C@@H](OCC(C)C)[C@H](C)OC2=O)c1O [Compound 2, N-((3S,7S,8R,9S)-7-benzyl-8-isobutoxy-9-methyl-2-oxo-1,5-dioxonan-3-yl)-3-hydroxy-4-methoxypicolinamide]
80 to 100%: [1] | [2] | [3]; [6] | [3]; [7]

COc1ccnc(C(=O)N[C@H]2COC[C@H](Cc3ccccc3)[C@@H](OCC(C)C)[C@H](C)OC2=O)c1OCOC(=O)C(C)C [Compound 3]
80 to 100%: [4] | [5] | [3]; [6] | [3]; [7]
0 to 80%: [1]

COc1ccnc(C(=O)N[C@H]2COC[C@H](Cc3ccccc3)[C@@H](OCC(C)C)[C@H](C)OC2=O)c1OCOC(=O)C(C)(C)C [Compound 7]
0 to 80%: [1]
80 to 100%: [4] | [5] | [3]; [6] | [3]; [7]

COc1ccnc(C(=O)N[C@H]2COC[C@H](Cc3ccccc3)[C@@H](OCC(C)C)[C@H](C)OC2=O)c1OCOC(C)=O [Compound 8, (2-((3S,7S,8R,9S)-7-benzyl-8-isobutoxy-9-methyl-2-oxo-1,5-dioxonan-3-ylcarbamoyl)-4-methoxypyridin-3-yloxy)methyl acetate]
80 to 100%: [4] | [1] | [5] | [2] | [3]; [6] | [3]; [7]

COc1ccnc(C(=O)N[C@H]2COC[C@H](Cc3ccccc3)[C@@H](OCC(C)C)[C@H](C)OC2=O)c1OC(C)=O [Compound 9, 2-(((3S,7S,8R,9S)-7-benzyl-8-isobutoxy-9-methyl-2-oxo-1,5-dioxonan-3-yl)carbamoyl)-4-methoxypyridin-3-yl acetate]
80 to 100%: [4] | [1] | [5] | [3]; [6] | [3]; [7]

COc1ccnc(C(=O)N[C@H]2COC[C@H](Cc3ccccc3)[C@@H](OCC(C)C)[C@H](C)OC2=O)c1OC(=O)OC(C)C [Compound 10, 2-(((3S,7S,8R,9S)-7-benzyl-8-isobutoxy-9-methyl-2-oxo-1,5-dioxonan-3-yl)carbamoyl)-4-methoxypyridin-3-yl isopropyl carbonate]
80 to 100%: [4] | [1] | [5] | [3]; [6] | [3]; [7]

COc1ccnc(C(=O)N[C@H]2COC[C@H](Cc3ccccc3)[C@@H](OCCC(=O)N(C)C)[C@H](C)OC2=O)c1OCOC(C)=O [Compound 15]
0 to 80%: [1] | [2] | [3]; [6] | [3]; [7]

COCCCO[C@@H]1[C@@H](Cc2ccccc2)COC[C@H](NC(=O)c2nccc(OC)c2OCOC(C)=O)C(=O)O[C@H]1C [Compound 16]
80 to 100%: [4] | [5] | [2] | [3]; [6] | [3]; [7]
0 to 80%: [1]

CCCO[C@@H]1[C@@H](Cc2ccccc2)COC[C@H](NC(=O)c2nccc(OC)c2OCOC(C)=O)C(=O)O[C@H]1C [Compound 22]
80 to 100%: [4] | [1] | [5] | [2] | [3]; [6] | [3]; [7]

COc1ccnc(C(=O)N[C@H]2COC[C@H](Cc3ccccc3)[C@@H](OC(=O)c3ccccc3)[C@H](C)OC2=O)c1OCOC(C)=O [Compound 37]
80 to 100%: [2] | [3]; [6] | [3]; [7]
0 to 80%: [4] | [1]

COc1ccnc(C(=O)N[C@H]2COC[C@H](Cc3ccccc3)[C@@H](Oc3ccccc3)[C@H](C)OC2=O)c1OCOC(C)=O [Compound 40]
80 to 100%: [1] | [2] | [3]; [6] | [3]; [7]

COc1ccnc(C(=O)N[C@H]2COC[C@H](Cc3ccccc3)[C@@H](OCC(F)F)[C@H](C)OC2=O)c1OCOC(C)=O [Compound 44]
0 to 80%: [1] | [5]
80 to 100%: [2] | [3]; [6] | [3]; [7]

COc1ccnc(C(=O)N[C@H]2COC[C@H](Cc3ccccc3)[C@@H](OCCC(C)OC)[C@H](C)OC2=O)c1OCOC(C)=O (stereo partly drawn) [Compound 46]
80 to 100%: [1] | [5] | [2] | [3]; [6] | [3]; [7]

COc1ccnc(C(=O)N[C@H]2COC[C@H](Cc3ccccc3)[C@@H](OC3CCCC3)[C@H](C)OC2=O)c1OCOC(C)=O [Compound 106]
80 to 100%: [4] | [5] | [3]; [6] | [3]; [7]
